Values quoted from earlier work in patent US4503068A, “Use of prostaglandin analogues to treat cytodamage” (priority 1982, dated 1985).

What was measured:
[1] = test system: ischemic myocardial tissue; conditions: cat; cited from earlier work
[2] = test system: endotoxin-induced lung injury; conditions: sheep; cited from earlier work
[3] = test system: isolate perfused cat liver; conditions: cited from earlier work
endotoxin shock = conditions: dog; cited from earlier work

CCCCC[C@H](O)/C=C/[C@@H]1[C@H]2C/C(=C/CCCC(=O)O)O[C@H]2C[C@H]1O [PGI2, (5Z,13E)-(9α,11α,15S)-6,9-epoxy-11,15-dihydroxyprosta-5,13-dienoic acid]
prevents and is useful in treating: effect on ischemic myocardial tissue [1] | effect on endotoxin-induced lung injury [2] | effect on hypoxia in the isolate perfused cat liver [3] | effect on endotoxin shock (endotoxin shock)
